Experimental data reported in patent US20250320206A1, “STAT6 DEGRADERS” (Gilead Sciences, Inc., priority 2024, published 2025).

Legend:
[1] = target: T1, STAT6 (Homo sapiens, UniProt P42226); experiment: Stat6 Degrader Assay (HiBiT based, HeLa LgBiT clone 4.14); type: cell-based; details: HeLa LgBiT clone 4.14 HiBiT-STAT6, 4-24 h incubation; values given for compounds with >80% Emax; geometric mean; read-out: STAT6 degradation DC50
T1 construct: These cells express endogenous STAT6; host or cells: HeLa LgBiT clone 4.14
T1 sequence (P42226 1-847): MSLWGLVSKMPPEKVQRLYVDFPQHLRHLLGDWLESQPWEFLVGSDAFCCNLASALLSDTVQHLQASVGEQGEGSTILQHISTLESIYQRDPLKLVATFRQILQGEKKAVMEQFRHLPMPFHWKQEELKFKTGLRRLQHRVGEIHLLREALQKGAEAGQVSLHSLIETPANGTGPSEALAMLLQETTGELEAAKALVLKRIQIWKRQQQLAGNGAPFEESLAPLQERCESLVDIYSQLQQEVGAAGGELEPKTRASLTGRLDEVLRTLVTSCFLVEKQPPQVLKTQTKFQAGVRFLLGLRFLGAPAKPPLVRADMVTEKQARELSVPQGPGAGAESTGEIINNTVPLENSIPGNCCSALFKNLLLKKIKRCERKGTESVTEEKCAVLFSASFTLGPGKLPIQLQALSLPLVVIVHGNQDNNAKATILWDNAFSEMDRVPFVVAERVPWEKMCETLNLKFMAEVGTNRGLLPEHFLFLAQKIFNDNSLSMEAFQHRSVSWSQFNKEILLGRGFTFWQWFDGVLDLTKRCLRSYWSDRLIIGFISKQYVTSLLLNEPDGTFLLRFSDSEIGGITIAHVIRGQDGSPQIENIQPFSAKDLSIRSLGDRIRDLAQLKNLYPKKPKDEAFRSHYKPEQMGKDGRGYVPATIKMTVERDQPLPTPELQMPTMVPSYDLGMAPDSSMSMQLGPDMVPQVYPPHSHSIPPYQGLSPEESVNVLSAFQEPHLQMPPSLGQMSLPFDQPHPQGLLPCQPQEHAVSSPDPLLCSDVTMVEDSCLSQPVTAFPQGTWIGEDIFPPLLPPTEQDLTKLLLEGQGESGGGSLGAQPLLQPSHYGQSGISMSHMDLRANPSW
Summary of the method: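 HeLa LgBiT clone 4.14 cells with CRISPR HiBiT-tagged endogenous STAT6, 5000 cells/well, compound dosed then incubated 4-24 h at 37° C, 5% CO2. Nano-Glo substrate added, 0.5 h, luminescence read as non-degraded STAT6. Terfenadine 50 μM (cell kill) defines 100% degradation.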

[2] = system: Eotaxin-3 release in human whole blood stimulated with IL-4; experiment: Human Whole Blood Eotaxin-3 Assay (IL-4 stimulated eotaxin-3 release); type: cell-based; details: IL-4 stimulation, 48 h, values given for compounds with >80% Emax, geometric mean
Procedure: Human Whole Blood Eotaxin-3 Assay
This was a human whole blood assay using recombinant human Interleukin 4 to stimulate the blood and measuring the ability of the test compounds to inhibit eotaxin-3 release. The biological activities of the test compounds have been tested in human whole blood stimulated with IL-4 measuring Eotaxin-3 release. The test compounds were added to 384 well clear flat-bottom plate in a 4-fold serial dilution in triplicates using a liquid handler. Human whole blood stabilized in lithium-heparin tubes was added in a volume of 65 μL per well, resulting in a final DMSO concentration of 0.5%. The plate is incubated for 2 h at 37° C. under 5% CO2/95% air. Subsequently, 5 μL of recombinant human IL-4 (R&D Systems, cat #204-ILB) was added to the wells to a final concentration of […]. The plate was incubated for 48 h at 37° C. under 5% CO2/95% air. The plate was spun down for 10 minutes at 500×g and 20 μL supernatant was harvested and transferred to a 384 well v-bottom plate using a liquid handler and stored at −20° C. until further analysis. 10 μL supernatant was used to measure the level of Eotaxin-3 (CCL26) using Human Eotaxin-3 MSD kit from Mesocsale (Cat #K251UEK-4). The assay was performed according to the manufacture instructions.
The data from the human whole blood eotaxin-3 assay is shown in FIG. 2 for Examples 3u208, 3u246, 3u118, 3u119, 3u120, and 3u74 (where the effect in % is plotted against the test concentration in M on a log scale).

Compound	DC50 [1] [nM]	EC50 [2] [nM]
CNc1ccn(-c2ccnc3c2cc([C@H](C)N2CCC(c4ccc(C(=O)N5CCC(CN6CCN(Cc7ccc8c(c7)C7(CC7)C(=O)N8[C@H]7CCC(=O)NC7=O)C[C@@H]6C)CC5)cc4)CC2)n3C)c(=O)c1 (single isomer, unassigned) [Example 3u6]	0.7	19.3
CNc1ccn(-c2ccnc3c2cc(CN2CCC(c4c(F)cc(C(=O)N5CCC(CN6CCN(Cc7ccc8c(c7)C(C)(C)C(=O)N8[C@H]7CCC(=O)NC7=O)CC6)CC5)cc4F)CC2)n3C)c(=O)c1 (single isomer, unassigned) [Example 3u17]	6	6.3
CNc1ccn(-c2ccnc3c2cc(CN2CCC(c4c(F)cc(C(=O)N5CCC(CN6CCN(Cc7ccc8c(c7)C(C)(C)C(=O)N8[C@@H]7CCC(=O)NC7=O)CC6)CC5)cc4F)CC2)n3C)c(=O)c1 (single isomer, unassigned) [Example 3u18]	8.4	18.6
CNc1cc(=O)n(-c2ccnc3c2cc([C@H](C)N2CC=C(c4c(C)cc(C(=O)N5CCC(CN6CCC(c7ccc8c(c7)C7(CC7)C(=O)N8C7CCC(=O)NC7=O)CC6)CC5)cc4F)CC2)n3C)cc1F (stereo partly drawn) [Example 3u282, 3-(5′-(1-((1-(3-fluoro-4-(1-((S)-1-(4-(5-fluoro-4-(methylamino)-2-oxopyridin-1 (2H)-yl)-1-methyl-1H-pyrrolo[2,3-b]pyridin-2-yl)ethyl)-1,2,3,6-tetrahydropyridin-4-yl)-5-methylbenzoyl)-piperidin-4-yl)methyl)piperidin-4-yl)-2′-oxospiro[cyclopropane-1,3′-indolin]-1′-yl)piperidine-2,6-dione]		6.9
CNc1cc(=O)n(-c2ccnc3c2cc([C@H](C)N2CC=C(c4c(C)cc(C(=O)N5CCC(O)(CC6CCN(c7ccc8c(c7)C7(CC7)C(=O)N8C7CCC(=O)NC7=O)CC6)CC5)cc4F)CC2)n3C)cc1F (stereo partly drawn) [Example 3u283, 3-(5′-(4-((1-(3-fluoro-4-(1-((S)-1-(4-(5-fluoro-4-(methylamino)-2-oxopyridin-1 (2H)-yl)-1-methyl-1H-pyrrolo[2,3-b]pyridin-2-yl)ethyl)-1,2,3,6-tetrahydropyridin-4-yl)-5-methylbenzoyl)-4-hydroxypiperidin-4-yl)methyl)piperidin-1-yl)-2′-oxospiro[cyclopropane-1,3′-indolin]-1′-yl)piperidine-2,6-dione]		126
CNc1cc(=O)n(-c2ccnc3c2cc([C@H](C)N2CC=C(c4c(C)cc(C(=O)N5CCC(CN6CCN(c7cc8c(cc7F)N(C7CCC(=O)NC7=O)C(=O)C87CC7)CC6)CC5)cc4F)CC2)n3C)cc1F (stereo partly drawn) [Example 3u305, 3-(6′-fluoro-5′-(4-((1-(3-fluoro-4-(1-((S)-1-(4-(5-fluoro-4-(methylamino)-2-oxopyridin-1 (2H)-yl)-1-methyl-1H-pyrrolo[2,3-b]pyridin-2-yl)ethyl)-1,2,3,6-tetrahydropyridin-4-yl)-5-methylbenzoyl)piperidin-4-yl)methyl)piperazin-1-yl)-2′-oxospiro[cyclopropane-1,3′-indolin]-1′-yl)piperidine-2,6-dione]		24.9
CNc1cc(=O)n(-c2ccnc3c2cc([C@H](C)N2CC=C(c4c(C)cc(C(=O)N5CCC(CN6CCN(c7cc8c(cc7F)N(C7CCC(=O)NC7=O)C(=O)C8(C)C)CC6)CC5)cc4F)CC2)n3C)cc1F (stereo partly drawn) [Example 3u306, 3-(6-fluoro-5-(4-((1-(3-fluoro-4-(1-((S)-1-(4-(5-fluoro-4-(methylamino)-2-oxopyridin-1 (2H)-yl)-1-methyl-1H-pyrrolo[2,3-b]pyridin-2-yl)ethyl)-1,2,3,6-tetrahydropyridin-4-yl)-5-methylbenzoyl)piperidin-4-yl)methyl)piperazin-1-yl)-3,3-dimethyl-2-oxoindolin-1-yl)piperidine-2,6-dione]		194

Stronger by EC50 [2], values ahead:

DC50 [1] [nM]	EC50 [2] [nM]	Compound
1	0.8	CNc1ccn(-c2ccnc3c2cc([C@H](C)N2CCC(c4ccc(C(=O)N5CCC(CN6CCN(Cc7ccc8c(c7)C7(CC7)C(=O)N8C7CCC(=O)NC7=O)C[C@@H]6C)CC5)cc4)CC2)n3C)c(=O)c1 (mixture of isomers) [Example 3u5, 3-(5′-(((S)-3-methyl-4-((1-(4-(1-((S)-1-(1-methyl-4-(4-(methylamino)-2-oxopyridin-1 (2H)-yl)-1H-pyrrolo[2,3-b]pyridin-2-yl)ethyl)piperidin-4-yl)benzoyl)piperidin-4-yl)methyl)piperazin-1-yl)-methyl)-2′-oxospiro[cyclopropane-1,3′-indolin]-1′-yl)piperidine-2,6-dione]
1.8	1.9	CNc1cc(=O)n(-c2ccnc3c2cc([C@H](C)N2CC=C(c4c(F)cc(C(=O)N5CCC(CN6CCN(Cc7ccc8c(c7)n(C)c(=O)n8C7CCC(=O)NC7=O)CC6)CC5)cc4F)CC2)n3C)cc1F (mixture of isomers) [Example 3u51, 3-(5-((4-((1-(3,5-difluoro-4-(1-((S)-1-(4-(5-fluoro-4-(methylamino)-2-oxopyridin-1 (2H)-yl)-1-methyl-1H-pyrrolo[2,3-b]pyridin-2-yl)ethyl)-1,2,3,6-tetrahydropyridin-4-yl)benzoyl)piperidin-4-yl)methyl)piperazin-1-yl)methyl)-3-methyl-2-oxo-2,3-dihydro-1H-benzo[d]imidazol-1-yl)piperidine-2,6-dione]
0.5	0.9	CNc1ccn(-c2ccnc3c2cc([C@H](C)N2CC=C(c4c(C)cc(C(=O)N5CCC(CN6CCN(Cc7ccc8c(c7)C7(CC7)C(=O)N8C7CCC(=O)NC7=O)C[C@@H]6C)CC5)cc4F)CC2)n3C)c(=O)c1 (mixture of isomers) [Example 3u190, 3-(5′-(((S)-4-((1-(3-fluoro-5-methyl-4-(1-((S)-1-(1-methyl-4-(4-(methylamino)-2-oxopyridin-1 (2H)-yl)-1H-pyrrolo[2,3-b]pyridin-2-yl)ethyl)-1,2,3,6-tetrahydropyridin-4-yl)benzoyl)piperidin-4-yl)methyl)-3-methylpiperazin-1-yl)methyl)-2′-oxospiro[cyclopropane-1,3′-indolin]-1′-yl)piperidine-2,6-dione]
0.5	0.2	CNc1ccn(-c2ccnc3c2cc([C@H](C)N2CC=C(c4c(C)cc(C(=O)N5CCC(CN6CCN(Cc7cc8c(cc7F)n([C@H]7CCC(=O)NC7=O)c(=O)n8C)CC6)CC5)cc4F)CC2)n3C)c(=O)c1 (single isomer, unassigned) [Example 3u11]
0.6	0.5	CNc1ccn(-c2ccnc3c2cc([C@H](C)N2CC=C(c4c(C)cc(C(=O)N5CCC(CN6CCN(Cc7cc8c(cc7F)n([C@@H]7CCC(=O)NC7=O)c(=O)n8C)CC6)CC5)cc4F)CC2)n3C)c(=O)c1 (single isomer, unassigned) [Example 3u12]
0.6	1.2	CNc1cc(=O)n(-c2ccnc3c2cc([C@H](C)N2CC=C(c4c(C)cc(C(=O)N5CCC(CN6CCN(Cc7ccc8c(c7)n(C)c(=O)n8[C@H]7CCC(=O)NC7=O)CC6)CC5)cc4F)CC2)n3C)cc1F (single isomer, unassigned) [Example 3u14]
0.8	2.2	CNc1cc(=O)n(-c2ccnc3c2cc([C@H](C)N2CC=C(c4c(C)cc(C(=O)N5CCC(CN6CCN(Cc7ccc8c(c7)n(C)c(=O)n8[C@@H]7CCC(=O)NC7=O)CC6)CC5)cc4F)CC2)n3C)cc1F (single isomer, unassigned) [Example 3u15]
1.3	1	Cc1cc(C(=O)N2CCC(CN3CCN(Cc4ccc5c(c4)n(C)c(=O)n5[C@@H]4CCC(=O)NC4=O)C[C@@H]3C)CC2)cc(F)c1C1=CCN(Cc2cc3c(-n4ccc5c(c4=O)CCN5)ccnc3n2C)CC1 (single isomer, unassigned) [Example 3u25]
